Values quoted from earlier work in article PMC9851200, “Multiparameter phenotypic screening for endogenous TFEB and TFE3 translocation identifies novel chemical series modulating lysosome function” (Autophagy, 2022).

Columns and labels:
Set-up in all cases: method as in original PKIS2 published data
[1] = biological target: T1, kinases (KINOMEscan panel) (Homo sapiens, UniProt P36888); details: Published KINOMEscan, ref original PKIS2 published data, cited from earlier work
T1 sequence (P36888 27-993): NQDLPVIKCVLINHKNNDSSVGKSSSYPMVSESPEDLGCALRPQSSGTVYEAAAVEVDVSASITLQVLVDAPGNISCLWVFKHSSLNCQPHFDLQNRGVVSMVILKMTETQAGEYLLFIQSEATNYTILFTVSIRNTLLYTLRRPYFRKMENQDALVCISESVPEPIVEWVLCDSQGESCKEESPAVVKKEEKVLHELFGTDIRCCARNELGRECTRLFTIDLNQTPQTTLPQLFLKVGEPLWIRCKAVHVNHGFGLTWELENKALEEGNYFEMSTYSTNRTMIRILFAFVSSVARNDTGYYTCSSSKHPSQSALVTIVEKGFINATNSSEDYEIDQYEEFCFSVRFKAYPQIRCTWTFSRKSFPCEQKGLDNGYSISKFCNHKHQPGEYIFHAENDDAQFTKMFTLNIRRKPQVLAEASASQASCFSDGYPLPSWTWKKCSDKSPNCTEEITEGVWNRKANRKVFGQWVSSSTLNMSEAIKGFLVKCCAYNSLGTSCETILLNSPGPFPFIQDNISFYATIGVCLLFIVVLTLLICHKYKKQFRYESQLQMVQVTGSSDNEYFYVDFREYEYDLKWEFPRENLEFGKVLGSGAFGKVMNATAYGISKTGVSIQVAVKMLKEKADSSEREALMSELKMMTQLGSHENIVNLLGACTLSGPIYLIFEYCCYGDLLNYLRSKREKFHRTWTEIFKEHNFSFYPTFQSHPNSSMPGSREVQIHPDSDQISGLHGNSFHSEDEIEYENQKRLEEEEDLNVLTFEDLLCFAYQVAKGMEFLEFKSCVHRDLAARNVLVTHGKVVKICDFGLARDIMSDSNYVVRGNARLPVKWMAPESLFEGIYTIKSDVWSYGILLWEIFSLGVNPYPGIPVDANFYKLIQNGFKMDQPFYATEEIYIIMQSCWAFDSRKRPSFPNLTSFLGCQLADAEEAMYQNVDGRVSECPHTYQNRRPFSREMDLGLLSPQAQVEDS

[2] = biological target: kinases (KINOMEscan panel) (Homo sapiens, UniProt P53671); details: LIMK2; Published KINOMEscan; ref original PKIS2 published data; cited from earlier work
[3] = biological target: T2, kinases (KINOMEscan panel) (Homo sapiens, UniProt O00444); details: kinase PLK4; Published KINOMEscan; ref original PKIS2 published data; cited from earlier work
T2 sequence (O00444 1-970): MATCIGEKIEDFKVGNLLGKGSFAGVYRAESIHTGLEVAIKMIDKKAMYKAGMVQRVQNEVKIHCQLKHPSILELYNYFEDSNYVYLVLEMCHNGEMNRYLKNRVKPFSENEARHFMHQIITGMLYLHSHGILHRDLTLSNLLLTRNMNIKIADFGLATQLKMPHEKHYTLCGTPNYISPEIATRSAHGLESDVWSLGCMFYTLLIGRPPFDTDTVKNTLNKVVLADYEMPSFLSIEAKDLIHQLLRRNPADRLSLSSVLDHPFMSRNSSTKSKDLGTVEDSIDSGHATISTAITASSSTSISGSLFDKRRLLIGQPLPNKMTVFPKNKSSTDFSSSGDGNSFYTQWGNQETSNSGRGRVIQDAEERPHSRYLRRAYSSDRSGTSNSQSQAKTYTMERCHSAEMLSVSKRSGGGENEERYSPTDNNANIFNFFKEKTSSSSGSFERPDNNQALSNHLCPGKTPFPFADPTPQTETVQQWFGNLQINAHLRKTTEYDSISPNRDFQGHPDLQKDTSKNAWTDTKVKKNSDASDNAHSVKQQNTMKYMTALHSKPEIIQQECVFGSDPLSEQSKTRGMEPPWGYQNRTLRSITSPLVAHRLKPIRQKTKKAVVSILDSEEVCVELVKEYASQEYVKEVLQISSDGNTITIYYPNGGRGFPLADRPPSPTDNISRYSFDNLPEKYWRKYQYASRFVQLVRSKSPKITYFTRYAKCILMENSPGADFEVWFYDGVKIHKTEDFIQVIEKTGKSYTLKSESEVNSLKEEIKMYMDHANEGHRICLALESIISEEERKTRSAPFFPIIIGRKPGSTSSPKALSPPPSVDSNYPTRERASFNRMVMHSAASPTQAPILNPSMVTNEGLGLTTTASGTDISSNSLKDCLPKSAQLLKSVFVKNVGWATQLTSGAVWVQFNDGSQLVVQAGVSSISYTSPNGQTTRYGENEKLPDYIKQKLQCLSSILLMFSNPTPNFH

kinases (KINOMEscan panel) (Homo sapiens, UniProt P53671), sequence (P53671 whole entry): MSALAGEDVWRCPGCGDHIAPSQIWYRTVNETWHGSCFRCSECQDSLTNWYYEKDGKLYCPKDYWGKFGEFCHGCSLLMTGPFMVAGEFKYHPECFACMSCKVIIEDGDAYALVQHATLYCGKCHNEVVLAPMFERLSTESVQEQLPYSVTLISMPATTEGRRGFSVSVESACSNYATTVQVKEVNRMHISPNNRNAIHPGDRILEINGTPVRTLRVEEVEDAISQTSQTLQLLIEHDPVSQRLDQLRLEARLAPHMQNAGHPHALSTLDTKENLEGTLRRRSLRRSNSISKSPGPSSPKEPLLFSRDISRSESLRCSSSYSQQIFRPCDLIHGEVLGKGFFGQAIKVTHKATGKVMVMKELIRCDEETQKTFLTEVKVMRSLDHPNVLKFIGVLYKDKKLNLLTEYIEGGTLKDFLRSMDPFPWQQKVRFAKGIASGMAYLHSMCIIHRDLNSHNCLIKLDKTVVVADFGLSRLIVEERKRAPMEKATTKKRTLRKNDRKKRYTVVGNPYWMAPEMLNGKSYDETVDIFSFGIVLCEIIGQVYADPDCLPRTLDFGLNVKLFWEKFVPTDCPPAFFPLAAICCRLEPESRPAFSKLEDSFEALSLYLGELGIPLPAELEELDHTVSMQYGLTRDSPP

Cc1cccc(-c2nc(Nc3ccncc3)c3ccccc3n2)n1 [NK215]
KINOMEscan FLT3 ([1]; FLT3): 0
KINOMEscan FLT3-autoinhibited ([1]; kinase FLT3-autoinhibited): 0
KINOMEscan LIMK2 [2]: 5
KINOMEscan PLK4 [3]: 0
